In patent US7393865B2, “Sleep inducing compounds and methods relating thereto” (Neurocrine Biosciences, Inc., priority 2004, dated 2008):

These compounds were tested against T1, human H1 receptor (Homo sapiens, UniProt P35367) (assay: Human histamine H1 receptor binding assay). Settings: competition with 1.5 nM [pyridinyl-5-3H] Pyrilamine, crude membranes of CHO cells transfected with human H1 receptor; Ki from IC50 by Cheng-Prusoff.
T1 construct: expressed in transfected cells; host or cells: CHO cells (crude membranes)
T1 sequence (P35367 whole entry): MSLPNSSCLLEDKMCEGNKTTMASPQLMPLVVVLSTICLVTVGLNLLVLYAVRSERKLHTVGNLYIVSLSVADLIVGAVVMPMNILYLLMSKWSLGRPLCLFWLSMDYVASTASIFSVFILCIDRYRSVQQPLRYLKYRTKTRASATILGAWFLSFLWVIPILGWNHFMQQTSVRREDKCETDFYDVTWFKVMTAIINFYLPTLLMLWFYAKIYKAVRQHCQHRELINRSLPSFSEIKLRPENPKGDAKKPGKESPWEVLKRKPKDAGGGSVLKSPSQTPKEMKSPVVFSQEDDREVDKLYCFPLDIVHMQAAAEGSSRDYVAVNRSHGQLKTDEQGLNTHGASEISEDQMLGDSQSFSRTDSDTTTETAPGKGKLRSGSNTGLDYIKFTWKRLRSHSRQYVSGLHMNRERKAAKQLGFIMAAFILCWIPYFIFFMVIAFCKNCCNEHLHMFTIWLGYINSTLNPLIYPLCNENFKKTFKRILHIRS
Description: Compounds of the present invention may be evaluated for binding to the histamine H1 receptor by a standard binding assay. […] Pyrilamine (˜30 Ci/mmol, Amersham TRK608) in the presence of varying concentrations of competing ligand. Non-specific binding is determined in the presence of excess (1 μM) doxepin. Bound and free ligand are separated by rapid vacuum filtration using a Packard 96-well cell harvester onto UniFilter GF/C filter plates (PerkinElmer) that has been pretreated with 1% polyethyleneimine. The filter plates are then washed with 600 μl phosphate buffered saline containing 0.01% (v/v) Triton-X100. Bound radioligand is determined by scintillation counting using a TopCount-NXT (Packard). Binding data is analyzed by nonlinear, least-squares curve fitting algorithms using GraphPad Prism (GraphPad Software, Inc. San Diego, Calif.) or ActivityBase (IDBS, Guildford, Surrey, UK).
Work on `CC(c1nccs1)c1c(CCN(C)C)sc2ccccc12` (stereo not drawn) [Compound 8-3, Dimethyl-{2-[3-(1-thiazol-2-yl-ethyl)-benzo[b]thiophen-2-yl]-ethyl}-amine] yielded a Ki of no more than 1000 nM. In the case of `CN(C)CCc1sc2ccccc2c1Cc1cnns1` [Compound 13-12, Dimethyl-[2-(3-[1,2,3]thiadiazol-5-ylmethyl-benzo[b]thiophen-2-yl)-ethyl]-amine], the Ki is reported as no more than 1000 nM. For `COc1cccnc1Cc1c(CCN(C)C)sc2ccccc12` [Compound 13-7, {2-[3-(3-Methoxy-pyridin-2-ylmethyl)-benzo[b]thiophen-2-yl]-ethyl}-dimethyl-amine], the Ki was no more than 1000 nM. `C[C@@H](c1ccc(F)cn1)c1c(CCN(C)C)sc2ccccc12` [Compound 7-4, (2-{3-[(R)-1-(5-Fluoro-pyridin-2-yl)-ethyl]-benzo[b]thiophen-2-yl}-ethyl)-dimethyl-amine] showed a Ki of no more than 1000 nM. With `Cc1ccnc(C(C)c2c(CCN(C)C)sc3ccccc23)c1` (stereo not drawn) [Compound 5-3, Dimethyl-(2-{3-[1-(4-methyl-pyridin-2-yl)-ethyl]-benzo[b]thiophen-2-yl}-ethyl)-amine] the Ki was no more than 1000 nM. In the case of `CN(C)CCc1sc2ccccc2c1Cc1nccn1C` [Compound 13-15, Dimethyl-{2-[3-(1-methyl-1H-imidazol-2-ylmethyl)-benzo[b]thiophen-2-yl]-ethyl}-amine], the Ki is reported as no more than 1000 nM. Work on `Cc1cc(Cc2c(CCN(C)C)sc3ccccc23)n(C)n1` [Compound 13-13, {2-[3-(2,5-Dimethyl-2H-pyrazol-3-ylmethyl)-benzo[b]thiophen-2-yl]-ethyl}-dimethyl-amine] yielded a Ki of no more than 1000 nM. `C[C@H](c1ccccn1)c1c(CCN2CCC2)sc2ccccc12` [Compound 20-9, 2-{(S)-1-[2-(2-Azetidin-1-yl-ethyl)-benzo[b]thiophen-3-yl]-ethyl}-pyridine] was tested, and the Ki was no more than 1000 nM. For `C=C(c1ccccn1)c1c(CCN(C)C)sc2cc(C)ccc12` [Compound 4-6, Dimethyl-{2-[6-methyl-3-(1-pyridin-2-yl-vinyl)-benzo[b]thiophen-2-yl]-ethyl}-amine], the Ki was no more than 1000 nM. `C[C@H](c1cscn1)c1c(CCN2CCCC2)sc2ccccc12` [Compound 19-6, 4-{(S)-1-[2-(2-Pyrrolidin-1-yl-ethyl)-benzo[b]thiophen-3-yl]-ethyl}-thiazole] showed a Ki of no more than 1000 nM. `CC(c1ccccn1)c1c(CCN2CCC(O)C2)sc2ccccc12` (stereo not drawn) [Compound 20-6, 1-{2-[3-(1-Pyridin-2-yl-ethyl)-benzo[b]thiophen-2-yl]-ethyl}-pyrrolidin-3-ol] showed a Ki of no more than 1000 nM. Compound `C[C@@H](c1ccccn1)c1c(CCN(C)C)sc2ccccc12` [Compound 12-2, Dimethyl-{2-[3-((R)-1-pyridin-2-yl-ethyl)-benzo[b]thiophen-2-yl]-ethyl}-amine] has a Ki of no more than 1000 nM. `CNCCc1sc2ccccc2c1[C@@H](C)c1ccccn1` [Compound 21-1, Methyl-{2-[3-((R)-1-pyridin-2-yl-ethyl)-benzo[b]thiophen-2-yl]-ethyl}-amine] gave a Ki of no more than 1000 nM. Work on `C[C@H](c1ccccn1)c1c(CCN(C)C)sc2ccccc12` [Compound 12-1, Dimethyl-{2-[3-((S)-1-pyridin-2-yl-ethyl)-benzo[b]thiophen-2-yl]-ethyl}-amine] yielded a Ki of no more than 1000 nM. For `C=C(c1cccnc1)c1c(CCN(C)C)sc2ccccc12` [Compound 6-4, Dimethyl-{2-[3-(1-pyridin-3-yl-vinyl)-benzo[b]thiophen-2-yl]-ethyl}-amine], the Ki was no more than 1000 nM. Compound `CC(c1ccc(F)cn1)c1c(CCN(C)C)sc2ccccc12` (stereo not drawn) [Compound 7-3, (2-{3-[1-(5-Fluoro-pyridin-2-yl)-ethyl]-benzo[b]thiophen-2-yl}-ethyl)-dimethyl-amine] has a Ki of no more than 1000 nM. Work on `CC(c1cncs1)c1c(CCN(C)C)sc2ccccc12` (stereo not drawn) [Compound 17-2, Dimethyl-{2-[3-(1-thiazol-5-yl-ethyl)-benzo[b]thiophen-2-yl]-ethyl}-amine] yielded a Ki of no more than 1000 nM. `CN(C)CCc1sc2ccccc2c1Cc1cccnc1F` [Compound 24-2, {2-[3-(2-Fluoro-pyridin-3-ylmethyl)-benzo[b]thiophen-2-yl]-ethyl}-dimethyl-amine] showed a Ki of no more than 1000 nM. `C=C(c1ccccn1)c1c(CCN(C)C)sc2ccccc12` [Compound 6-2, Dimethyl-{2-[3-(1-pyridin-2-yl-vinyl)-benzo[b]thiophen-2-yl]-ethyl}-amine] showed a Ki of no more than 1000 nM. `CN(C)CCc1sc2ccccc2c1Cc1ccccn1` [Compound 13-3, Dimethyl-[2-(3-pyridin-2-ylmethyl-benzo[b]thiophen-2-yl)-ethyl]-amine] was tested, and the Ki was no more than 1000 nM. `CN(C)CCc1sc2ccccc2c1Cc1cnccn1` [Compound 13-9, Dimethyl-[2-(3-pyrazin-2-ylmethyl-benzo[b]thiophen-2-yl)-ethyl]-amine] gave a Ki of no more than 1000 nM. `COc1ncccc1[C@H](C)c1c(CCN(C)C)sc2ccccc12` [Compound 15-6, Dimethyl-(2-{3-[(S)-1-(2-methoxy-pyridin-3-yl)-ethyl]-benzo[b]thiophen-2-yl}-ethyl)-amine] showed a Ki of no more than 1000 nM. With `CN(C)CCc1sc2ccccc2c1Cc1cscn1` [Compound 13-6, Dimethyl-[2-(3-thiazol-4-ylmethyl-benzo[b]thiophen-2-yl)-ethyl]-amine] the Ki was no more than 1000 nM. `C[C@H](c1ccc(F)cn1)c1c(CCN(C)C)sc2ccccc12` [Compound 7-5, (2-{3-[(S)-1-(5-Fluoro-pyridin-2-yl)-ethyl]-benzo[b]thiophen-2-yl}-ethyl)-dimethyl-amine] gave a Ki of no more than 1000 nM. `C[C@H](c1cccnc1F)c1c(CCN(C)C)sc2ccccc12` [Compound 15-8, Dimethyl-(2-{3-[(R)-1-(2-fluoro-pyridin-3-yl)-ethyl]-benzo[b]thiophen-2-yl}-ethyl)-amine] showed a Ki of no more than 1000 nM. Compound `C[C@@H](c1ccccn1)c1c(CCN2CCC2)sc2ccccc12` [Compound 20-8, 2-{(R)-1-[2-(2-Azetidin-1-yl-ethyl)-benzo[b]thiophen-3-yl]-ethyl}-pyridine] has a Ki of no more than 1000 nM. Work on `CC(c1ccncc1)c1c(CCN(C)C)sc2ccccc12` (stereo not drawn) [Compound 6-7, Dimethyl-{2-[3-(1-pyridin-4-yl-ethyl)-benzo[b]thiophen-2-yl]-ethyl}-amine] yielded a Ki of no more than 1000 nM. In the case of `CC(c1cccnc1F)c1c(CCN(C)C)sc2ccccc12` (stereo not drawn) [Compound 15-7, Dimethyl-(2-{3-[1-(2-fluoro-pyridin-3-yl)-ethyl]-benzo[b]thiophen-2-yl}-ethyl)-amine], the Ki is reported as no more than 1000 nM. For `CN(C)CCc1sc2ccccc2c1Cc1nccs1` [Compound 13-5, Dimethyl-[2-(3-thiazol-2-ylmethyl-benzo[b]thiophen-2-yl)-ethyl]-amine], the Ki was no more than 1000 nM. `CN(C)CCc1sc2ccccc2c1Cc1ccc(F)cc1` [Compound 3-2, {2-[3-(4-Fluoro-benzyl)-benzo[b]thiophen-2-yl]-ethyl}-dimethyl-amine] showed a Ki of no more than 1000 nM. `CN(C)CCc1sc2ccccc2c1Cc1nn(C)cc1Cl` [Compound 13-14, {2-[3-(4-Chloro-1-methyl-1H-pyrazol-3-ylmethyl)-benzo[b]thiophen-2-yl]-ethyl}-dimethyl-amine] showed a Ki of no more than 1000 nM. Work on `CC(c1ccccn1)c1c(CCN2CCC2)sc2ccccc12` (stereo not drawn) [Compound 20-7, 2-{1-[2-(2-Azetidin-1-yl-ethyl)-benzo[b]thiophen-3-yl]-ethyl}-pyridine] yielded a Ki of no more than 1000 nM. `C[C@@H](c1cccnc1F)c1c(CCN(C)C)sc2ccccc12` [Compound 15-9, Dimethyl-(2-{3-[(S)-1-(2-fluoro-pyridin-3-yl)-ethyl]-benzo[b]thiophen-2-yl}-ethyl)-amine] showed a Ki of no more than 1000 nM.
